In patent US20110294799A1, “Organic Compounds” (NOVARTIS AG, priority 2007, published 2011):

Experiments:
[1] = target: T1, GABA-A alpha1 receptor (alpha 1 subunit together with a beta and a gamma subunit) (Homo sapiens, UniProt P14867+P18507); test: GABA-A receptor modulation, voltage-sensitive dye fluorescence in transfected eukaryotic cell line (alpha1); assay type: cell-based; details: compounds at 3 μM, sub-maximal concentration of GABA (EC20); for activation at 3 µM: read-out: alpha1 % mod (percentage of increase of the fluorescent signal compared to signal without the agent)
T1 construct: expressed in transfected cells
T1 sequence (P14867 28-456): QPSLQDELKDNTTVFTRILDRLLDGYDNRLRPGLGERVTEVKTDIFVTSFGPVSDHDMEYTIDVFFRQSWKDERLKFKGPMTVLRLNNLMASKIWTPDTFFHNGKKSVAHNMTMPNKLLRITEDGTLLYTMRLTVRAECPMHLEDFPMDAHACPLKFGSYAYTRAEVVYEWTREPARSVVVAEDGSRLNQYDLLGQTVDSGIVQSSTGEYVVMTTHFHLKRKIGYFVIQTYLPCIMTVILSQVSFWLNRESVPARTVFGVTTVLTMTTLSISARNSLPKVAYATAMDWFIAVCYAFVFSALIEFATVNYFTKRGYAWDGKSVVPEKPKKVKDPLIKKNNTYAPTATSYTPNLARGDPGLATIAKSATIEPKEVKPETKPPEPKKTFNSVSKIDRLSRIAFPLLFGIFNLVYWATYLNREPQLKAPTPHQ
T1 sequence (P47870 25-512 partner limits assumed): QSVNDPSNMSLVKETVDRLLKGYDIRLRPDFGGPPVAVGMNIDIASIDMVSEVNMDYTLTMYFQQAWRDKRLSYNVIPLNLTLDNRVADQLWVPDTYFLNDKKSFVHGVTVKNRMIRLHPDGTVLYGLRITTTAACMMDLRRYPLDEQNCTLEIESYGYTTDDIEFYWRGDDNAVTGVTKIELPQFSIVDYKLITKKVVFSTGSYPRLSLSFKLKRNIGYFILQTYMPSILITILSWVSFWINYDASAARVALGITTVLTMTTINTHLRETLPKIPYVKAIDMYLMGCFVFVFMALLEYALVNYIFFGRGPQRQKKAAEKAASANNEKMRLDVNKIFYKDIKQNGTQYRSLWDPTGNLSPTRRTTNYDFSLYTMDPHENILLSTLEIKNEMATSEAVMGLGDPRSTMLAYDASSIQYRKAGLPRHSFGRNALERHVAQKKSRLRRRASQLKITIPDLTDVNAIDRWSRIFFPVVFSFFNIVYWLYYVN
T1 sequence (P18507 40-467 limits assumed): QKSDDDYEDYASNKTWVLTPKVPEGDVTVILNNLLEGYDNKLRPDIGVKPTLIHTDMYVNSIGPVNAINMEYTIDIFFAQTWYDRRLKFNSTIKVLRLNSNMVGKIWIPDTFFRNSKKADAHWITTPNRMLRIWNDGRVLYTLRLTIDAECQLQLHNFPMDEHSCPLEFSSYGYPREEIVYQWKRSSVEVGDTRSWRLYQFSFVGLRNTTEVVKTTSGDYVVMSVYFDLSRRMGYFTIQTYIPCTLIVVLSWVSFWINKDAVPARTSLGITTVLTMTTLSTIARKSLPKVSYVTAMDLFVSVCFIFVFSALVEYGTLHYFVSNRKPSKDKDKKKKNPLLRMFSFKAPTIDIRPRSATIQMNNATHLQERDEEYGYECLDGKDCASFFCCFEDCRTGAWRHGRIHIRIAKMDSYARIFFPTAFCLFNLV
Text: (§1) GABA-A receptor modulators show in functional assays a positive modulation of GABA-induced signals. This modulation can be determined in vitro, e.g., at recombinant GABA-A receptors expressed in a mammalian cell line, e.g. by measurement of GABA-A receptor induced changes of the trans-membrane voltage, when using a voltage-sensitive dye and a fluorescence detection system (Adkins, C. E., Pillai, G. V., Kerby, J., Bonnert, T. P., Haldon, C., Mckernan, R. M., Gonzalez, J. E., Oades, K., Whiting, P. J. & Simpson, P. B. [2001]. alpha4beta3delta GABA-A receptors characterized by fluorescence resonance energy transfer-derived measurements of membrane potential. J. Biol. Chem., 276, 38934-38939). In this assay, a modulator compound is pre-applied at different concentrations ranging from 0.1 nM to 10 μM to cells expressing GABA-A receptors and loaded with the voltage-sensitive dye, before, or at the same time as, a sub-maximal concentration of GABA (in the range of from 0.1 to 10 μM) is applied to the cells. The fluorescent signal is correlated with the degree of GABA-A receptor channel opening. This allows the quantification of effects induced by the modulator in a functional manner. By expression of different GABA-A receptor subunit combinations, the differential efficacy of a modulator at different GABA-A receptor variants can be tested. Other functional assays include the electrophysiological recording of Xenopus oocytes or mammalian cells expressing respective receptor variants. In addition, ion flux detectors can be used to functionally study GABA-A receptors in heterologous expression systems. The affinity of a compound to the GABA-A receptor can be measured in radioligand binding experiments using reference ligands containing a radioactive element, e.g., tritiated flumazenil, and intact cells or membrane preparations of cells expressing GABA-A receptors.
(§2) Activity and selectivity of a GABA-A receptor modulator according to the invention can, e.g., be determined in vitro as follows: A transfected eukaryotic cell line expressing the alpha1, alpha2 or alpha3 subunit of the GABA-A receptor together with a beta and a gamma subunit of the GABA-A receptor is incubated with a voltage-sensitive dye, and the effects of an agonist (typically GABA) or modulator addition are recorded in a fluorimetric plate reader. The opening of the GABA-A receptor channel and the subsequent flux of anions through it changes the trans-membrane voltage of the transfected cells, leading to a change in the fluorescent signal of the voltage-sensitive dye. In the presence of the agent of the invention, a sub-maximal concentration of GABA (e.g. an EC20 or an EC50) added to transfected cells expressing the alpha1, alpha2 or alpha3 subunit of the GABA-A receptor will elicit an at least 50%, preferably an at least 80%, ideally an at least 100%, increase, of the fluorescent signal, compared to the fluorescent signal obtained without the agent of the invention. In this assay, agents of the invention modulate the GABA-induced response at concentration from about 0.1 to about 10′000 nM.

[2] = target: T2, GABA-A alpha2 receptor (alpha 2 subunit together with a beta and a gamma subunit) (Homo sapiens, UniProt P18507+P47869); test: GABA-A receptor modulation, voltage-sensitive dye fluorescence in transfected eukaryotic cell line (alpha2); assay type: cell-based; details: compounds at 3 μM, sub-maximal concentration of GABA (EC20); for activation at 3 µM: read-out: alpha2 % mod (percentage of increase of the fluorescent signal compared to signal without the agent)
T2 construct: expressed in transfected cells
T2 sequence (P47869 29-451): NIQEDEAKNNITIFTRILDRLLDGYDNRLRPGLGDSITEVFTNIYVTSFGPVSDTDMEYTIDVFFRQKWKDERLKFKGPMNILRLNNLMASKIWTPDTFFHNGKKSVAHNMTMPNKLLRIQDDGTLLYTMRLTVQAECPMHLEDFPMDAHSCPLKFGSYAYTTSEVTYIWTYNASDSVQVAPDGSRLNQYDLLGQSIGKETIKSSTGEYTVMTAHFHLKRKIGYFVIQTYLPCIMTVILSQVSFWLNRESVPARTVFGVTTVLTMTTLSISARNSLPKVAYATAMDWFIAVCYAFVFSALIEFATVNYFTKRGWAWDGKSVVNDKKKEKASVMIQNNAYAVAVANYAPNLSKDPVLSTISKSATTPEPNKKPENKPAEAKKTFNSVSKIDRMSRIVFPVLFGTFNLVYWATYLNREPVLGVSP
T2 sequence (P47870 25-512 partner limits assumed): T1 sequence (P47870 25-512 partner limits assumed)
T2 sequence (P18507 40-467 limits assumed): T1 sequence (P18507 40-467 limits assumed)
Text: as §1, §2

SMILES | activation at 3 µM [1] [%] | activation at 3 µM [2] [%] | alpha1 % mod (percentage of increase of the fluorescent signal compared to signal without the agent) [1] [% mod] | alpha2 % mod (percentage of increase of the fluorescent signal compared to signal without the agent) [2] [% mod]
COc1ccc(-n2nc3c(cnc4ccccc43)c2OCc2ccc(C(F)(F)F)cc2)cc1 [Example 1, 2-(4-Methoxy-phenyl)-3-(4-trifluoromethyl-benzyloxy)-2H-pyrazolo[4,3-c]quinoline] | 5 | 36 | – | –
CCCCOc1c2cnc3ccccc3c2nn1-c1ccccc1 [Example 4, 3-butoxy-2-phenyl-2H-pyrazolo[4,3-c]quinoline] | 137 | 126 | – | –
COc1ccc(-n2nc3c(cnc4ccccc43)c2OCCOc2ccccc2)cc1 [Example 13, 2-(4-methoxyphenyl)-3-(2-phenoxyethoxy)-2H-pyrazolo[4,3-c]quinoline] | -29 | 52 | – | –
COc1ccc(-n2nc3c(cnc4ccccc43)c2OCCc2ccc(Cl)cc2)cc1 [Example 14, 3-[2-(4-chlorophenyl)ethoxy]-2-(4-methoxyphenyl)-2H-pyrazolo[4,3-c]quinoline] | 3 | 34 | – | –
COc1ccc(-n2nc3c(cnc4ccccc43)c2OCCc2ccccc2Cl)cc1 [Example 15, 3-[2-(2-chlorophenyl)ethoxy]-2-(4-methoxyphenyl)-2H-pyrazolo[4,3-c]quinoline] | 23 | 197 | – | –
Fc1ccccc1-n1nc2c(cnc3ccccc32)c1OCCc1ccccc1Cl [Example 16, 3-[2-(2-chlorophenyl)ethoxy]-2-(2-fluorophenyl)-2H-pyrazolo[4,3-c]quinoline] | 18 | 101 | – | –
COc1ccc(-n2nc3c(cnc4ccccc43)c2OCCCN2CCN(C)C2=O)cc1 [Example 17, 1-(3-{[2-(4-methoxyphenyl)-2H-pyrazolo[4,3-c]quinolin-3-yl]oxy}propyl)-3-methylimidazolidin-2-one] | 262 | 577 | – | –
COc1ccc(-n2nc3c(cnc4ccccc43)c2OCCN2CCOCC2)cc1 [Example 18, 2-(4-methoxyphenyl)-3-(2-morpholin-4-ylethoxy)-2H-pyrazolo[4,3-c]quinoline] | 67 | 196 | – | –
Fc1ccccc1-n1nc2c(cnc3ccccc32)c1OCCN1CCOCC1 [Example 19, 2-(2-fluorophenyl)-3-(2-morpholin-4-ylethoxy)-2H-pyrazolo[4,3-c]quinoline] | 0 | 72 | – | –
Fc1ccccc1COc1c2cnc3ccccc3c2nn1-c1ccccc1 [Example 27, 3-[(2-fluorobenzyl)oxy]-2-phenyl-2H-pyrazolo[4,3-c]quinoline] | 62 | 165 | – | –
Fc1ccc(-n2nc3c(cnc4ccccc43)c2OCc2ccccc2F)cc1 [Example 28, 3-[(2-fluorobenzyl)oxy]-2-(4-fluorophenyl)-2H-pyrazolo[4,3-c]quinoline] | 34 | 146 | – | –
Cc1cccc2c1ncc1c(OCc3ccc(Cl)cc3)n(-c3ccccc3)nc12 [Example 31, 3-[(4-chlorobenzyl)oxy]-6-methyl-2-phenyl-2H-pyrazolo[4,3-c]quinoline] | 51 | 81 | – | –
N#Cc1ccc2ncc3c(OCc4ccc(Cl)cc4)n(-c4ccccc4)nc3c2c1 [Example 32, 3-[(4-chlorobenzyl)oxy]-2-phenyl-2H-pyrazolo[4,3-c]quinoline-8-carbonitrile] | 34 | 88 | – | –
Fc1cccc2c1ncc1c(OCc3ccc(Cl)cc3)n(-c3ccccc3)nc12 [Example 33, 3-[(4-chlorobenzyl)oxy]-6-fluoro-2-phenyl-2H-pyrazolo[4,3-c]quinoline] | 39 | 73 | – | –
Clc1ccccc1COc1c2cnc3ccccc3c2nn1-c1ccccn1 [Example 34, 3-[(2-chlorobenzypoxy]-2-pyridin-2-y1-2H-pyrazolo[4,3-c]quinoline] | – | – | 13 | 57
Cc1ccccc1-n1nc2c(cnc3ccccc32)c1OCc1ccccc1Br [Example 36, 3-[(2-bromobenzyl)oxy]-2-(2-methylphenyl)-2H-pyrazolo[4,3-c]quinoline] | 223 | 315 | – | –
Clc1ccccc1-n1nc2c(cnc3ccccc32)c1OCc1ccccc1Br [Example 41, 3-[(2-bromobenzyl)oxy]-2-(2-chlorophenyl)-2H-pyrazolo[4,3-c]quinoline] | 289 | 386 | – | –
Fc1ccc(-n2nc3c(cnc4ccccc43)c2OCc2ccccc2C(F)(F)F)cc1 [Example 50, 2-(4-fluorophenyl)-3-{[2-(trifluoromethyl)benzyl]oxy}-2H-pyrazolo[4,3-c]quinoline] | 47 | 236 | – | –
Clc1ccccc1COc1c2cnc3ccccc3c2nn1-c1ccc2c(c1)OCO2 [Example 59, 2-(1,3-benzodioxo1-5-y1)-3-[(2-chlorobenzypoxy]-2H-pyrazolo[4,3-c]quinoline] | – | – | −17 | 66
